These results are taken from US12459951B2, “Compounds that interact with RAS superfamily proteins for treatment of cancers, inflammatory diseases, rasopathies, and fibrotic disease” (SHY Therapeutics, LLC, priority 2022, dated 2025).

One assay deals with IL6. The assay is described as follows: IL-6 Quantification Assay (ELISA), LPS-stimulated RAW 264.7. It is filed as cell-based. Also on record: inhibition: dose or concentration left out as unconfirmed. The settings on record: Mus musculus, RAW264.7, read-out: IL-6: % inh. For orientation: In an ELISA, binding on a coated surface is turned into a signal by an enzyme label.
Another assay deals with TNF-alpha. The assay is described as follows: TNF-alpha Quantification Assay (ELISA), LPS-stimulated RAW 264.7. It is filed as cell-based. Also on record: inhibition: dose or concentration left out as unconfirmed. The following applies: Mus musculus, RAW264.7, read-out: TNFα: % inh.
The test system of assay [1] is MiaPaca-2 (expressing KRAS G12C mutant). The assay is described as follows: Proliferation Assay (Cell Viability Assay). It is filed as cell-based. The following applies: Homo sapiens, MIA PaCa-2; read-out: Proliferation in MiaPaca-2: IC50. The procedure, abridged:
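After 2–4 days' exposure at 37 °C, 5% CO2 to a single 10 μM final concentration or a dilution series (IC50), percent proliferation inhibition was derived from CellTiter 96 Aqueous One viability readings. The medium contained 0.3% DMSO and 10% FBS. KRAS G12C MiaPaca-2 cells were plated at 2000–5000/well the day before.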

The subject of assay [2] is Smad2/Smad3 phosphorylation. The assay is described as follows: Phospho-Smad2/3 Inhibition Assay (western blot), Panc-1. It is filed as cell-based, human. The settings on record: at 10 μM, Panc-1 pancreatic cancer cell line; starred symbols = activation. The procedure, abridged:
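Western blotting of lysates (15-50 μg protein) read phosphorylation of Smad2 Ser465/467 and Smad3 Ser423/425. Before lysis, Panc-1 cells got 1 h of 10 ng/ml TGF-b1 following 3 h compound exposure at 37° C (10 μM final, or serial dilutions for IC50, 0.3% DMSO) after overnight 0.5% FBS starvation.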

As for `COc1cccc(-c2cn3nc(-c4nccn4C)nc(N[C@H]4C[C@H](OC)C4)c3c2-c2ccccn2)c1F` [Compound 45, 6-(2-Fluoro-3-methoxyphenyl)-N-((1r,3r)-3-methoxycyclobutyl)-2-(1-methyl-1H-imidazol-2-yl)-5-(pyridin-2-yl)pyrrolo[2,1-f][1,2,4]triazin-4-amine], the inhibition at 10 µM with IL6 (at 10 μM) and with TNF-alpha was 75 to 100% in each case. Besides, the IC50 in assay [1] is above 1000 nM. Also, the “% inh of Smad2/3 phosphorylation in Panc-1” value (“% inh” below) in assay [2] is reported as 0 (0 = 0% inhibition).

`COc1ccc(F)c(-c2cn3nc(-c4nccn4C)nc(N[C@H]4C[C@H](OC)C4)c3c2-c2ccccc2)c1F` [Compound 273, 6-(2,6-Difluoro-3-methoxyphenyl)-N-((1r,3r)-3-methoxycyclobutyl)-2-(1-methyl-1H-imidazol-2-yl)-5-phenylpyrrolo[2,1-f][1,2,4]triazin-4-amine]: the inhibition with IL6 fell in the range of 75 to 100%. Further, the inhibition at 10 µM with TNF-alpha was 75 to 100%. Also, in assay [1], the IC50 was above 1000 nM. Besides, the “% inh” value in assay [2] is recorded as “D (D = 76-100% inhibition)”.

With `COc1cccc(-c2cn3nc(-c4nccn4C)nc(N[C@H]4C[C@@H](OC)C4)c3c2-c2ccccc2)c1C` [Compound 269, 6-(3-Methoxy-2-methylphenyl)-N-((1s,3s)-3-methoxycyclobutyl)-2-(1-methyl-1H-imidazol-2-yl)-5-phenylpyrrolo[2,1-f][1,2,4]triazin-4-amine], the inhibition with IL6 was in the range of 75 to 100%. In the assay with TNF-alpha, the inhibition at 10 µM lay within 75 to 100%. In assay [1], the IC50 was 510 to 1000 nM. Further, the “% inh” value in assay [2] is recorded as “D (D = 76-100% inhibition)”.

For the compound `Cc1c(-c2ccn(C)n2)cn2nc(-c3nccn3C)nc(Nc3cc(-c4ccccn4)ccn3)c12` [Compound 248, N-([2,4′-Bipyridin]-2′-yl)-5-methyl-2-(1-methyl-1H-imidazol-2-yl)-6-(1-methyl-1H-pyrazol-3-yl)pyrrolo[2,1-f][1,2,4]triazin-4-amine], the results for the inhibition in the assay on IL6 and with TNF-alpha were 75 to 100% and 25 to 49%, respectively. In addition, in assay [1], the IC50 is below 150 nM. Further, the “% inh” value in assay [2] was “D* (D* = 76-100% activation)”.

Take `COc1cccc(-c2cn3nc(-c4nccn4C)nc(N[C@H]4C[C@H](OC)C4)c3c2-c2ccccc2)c1F` [Compound 42, 6-(2-Fluoro-3-methoxyphenyl)-N-((1r,3r)-3-methoxycyclobutyl)-2-(1-methyl-1H-imidazol-2-yl)-5-phenylpyrrolo[2,1-f][1,2,4]triazin-4-amine]: the inhibition in the assay with IL6 was 75 to 100%. In addition, the inhibition at 10 µM in the assay on TNF-alpha fell in the range of 75 to 100%. Further, the IC50 in assay [1] lay in the range of 510 to 1000 nM. In assay [2], the “% inh” value is reported as 0 (0 = 0% inhibition).

As for `COc1ccnc(Nc2nc(-c3nccn3C)nn3cc(-c4ccn(C)n4)c(C4CC4)c23)c1` [Compound 276, 5-Cyclopropyl-N-(4-methoxypyridin-2-yl)-2-(1-methyl-1H-imidazol-2-yl)-6-(1-methyl-1H-pyrazol-3-yl)pyrrolo[2,1-f][1,2,4]triazin-4-amine], the inhibition with IL6 is 50 to 74%. In addition, the inhibition at 10 µM in the assay on TNF-alpha amounted to 0%. For the same compound, the IC50 in assay [1] lay within 150 to 500 nM. In addition, the “% inh” value in assay [2] is “B (B = 26-45% inhibition)”.

Turning to `Cc1c(-c2ccn(C)n2)cn2nc(-c3nccn3C)nc(Nc3cc(-c4cccnc4)ccn3)c12` [Compound 250, N-([3,4′-Bipyridin]-2′-yl)-5-methyl-2-(1-methyl-1H-imidazol-2-yl)-6-(1-methyl-1H-pyrazol-3-yl)pyrrolo[2,1-f][1,2,4]triazin-4-amine], the inhibition with IL6 was 75 to 100%. For the same compound, the inhibition at 10 µM with TNF-alpha was in the range of 50 to 74%. Also, the IC50 in assay [1] is below 150 nM. For the same compound, the “% inh” value in assay [2] was “C* (C* = 46-75% activation)”.

As for `Cc1c(-c2ccn(C)n2)cn2nc(-c3nccn3C)nc(Nc3cc(C(F)F)[nH]n3)c12` [Compound 258, N-(5-(Difluoromethyl)-1H-pyrazol-3-yl)-5-methyl-2-(1-methyl-1H-imidazol-2-yl)-6-(1-methyl-1H-pyrazol-3-yl)pyrrolo[2,1-f][1,2,4]triazin-4-amine], the inhibition with IL6 came out at 0%. For the same compound, in the assay with TNF-alpha, the inhibition at 10 µM turned out to be 0%. Also, the IC50 in assay [1] was above 1000 nM. In assay [2], the “% inh” value is recorded as “A* (A* = 1-25% activation)”.

For the compound `Cc1c(-c2ccn(C)n2)cn2nc(-c3nccn3C)nc(Nc3cc(C4CCC4)[nH]n3)c12` [Compound 257, N-(5-Cyclobutyl-1H-pyrazol-3-yl)-5-methyl-2-(1-methyl-1H-imidazol-2-yl)-6-(1-methyl-1H-pyrazol-3-yl)pyrrolo[2,1-f][1,2,4]triazin-4-amine], the inhibition in the assay with IL6 lay in the range of 75 to 100%. Further, in the assay on TNF-alpha, the inhibition at 10 µM is 25 to 49%. For the same compound, the IC50 in assay [1] fell in the range of 150 to 500 nM. For the same compound, the “% inh” value in assay [2] was “D* (D* = 76-100% activation)”.

On to `Cc1c(-c2ccn(C(C)C)n2)cn2nc(-c3nccn3C)nc(Nc3ccncn3)c12` [Compound 55, 6-(1-Isopropyl-1H-pyrazol-3-yl)-5-methyl-2-(1-methyl-1H-imidazol-2-yl)-N-(pyrimidin-4-yl)pyrrolo[2,1-f][1,2,4]triazin-4-amine], for which the inhibition in the assay with IL6 lay in the range of 1 to 24%. In the assay with TNF-alpha, the inhibition at 10 µM is 1 to 24%. In assay [1], the IC50 is below 150 nM. In addition, in assay [2], the “% inh” value is “D (D = 76-100% inhibition)”.

Take `Cc1c(-c2ccn(C)n2)cn2nc(-c3nccn3C)nc(Nc3cc[nH]n3)c12` [Compound 256, 5-Methyl-2-(1-methyl-1H-imidazol-2-yl)-6-(1-methyl-1H-pyrazol-3-yl)-N-(1H-pyrazol-3-yl)pyrrolo[2,1-f][1,2,4]triazin-4-amine]: in the assay with IL6, the inhibition is 50 to 74%. For the same compound, the inhibition at 10 µM in the assay on TNF-alpha was found to be 0%. The IC50 in assay [1] is above 1000 nM. The “% inh” value in assay [2] was “D* (D* = 76-100% activation)”.

On to `Cc1c(-c2ccn(C(C)C)n2)cn2nc(-c3nccn3C)nc(Nc3ncco3)c12` [Compound 60, N-(6-(1-Isopropyl-1H-pyrazol-3-yl)-5-methyl-2-(1-methyl-1H-imidazol-2-yl)pyrrolo[2,1-f][1,2,4]triazin-4-yl)oxazol-2-amine], for which, in the assay with IL6, the inhibition was 0%. For the same compound, the inhibition at 10 µM in the assay on TNF-alpha was found to be 0%. In assay [1], the IC50 was above 1000 nM. Further, the “% inh” value in assay [2] is given as “C (C = 46-75% inhibition)”.

For the compound `Cc1c(-c2ccn(C)n2)cn2nc(-c3nccn3C)nc(Nc3cc(OC(F)F)n(C)n3)c12` [Compound 254, N-(5-(Difluoromethoxy)-1-methyl-1H-pyrazol-3-yl)-5-methyl-2-(1-methyl-1H-imidazol-2-yl)-6-(1-methyl-1H-pyrazol-3-yl)pyrrolo[2,1-f][1,2,4]triazin-4-amine], the inhibition in the assay with IL6 fell in the range of 25 to 49%. The inhibition at 10 µM in the assay on TNF-alpha was found to be 0%. In assay [1], the IC50 was above 1000 nM. In addition, the “% inh” value in assay [2] is “B* (B* = 26-45% activation)”.

Consider `COc1cc(Nc2nc(-c3nccn3C)nn3cc(-c4ccn(C)n4)c(C)c23)ncn1` [Compound 63, N-(6-Methoxypyrimidin-4-yl)-5-methyl-2-(1-methyl-1H-imidazol-2-yl)-6-(1-methyl-1H-pyrazol-3-yl)pyrrolo[2,1-f][1,2,4]triazin-4-amine], for which the inhibition with IL6 lay within 1 to 24%. Besides, in the assay with TNF-alpha, the inhibition at 10 µM was in the range of 1 to 24%. Further, in assay [1], the IC50 was below 150 nM. In assay [2], the “% inh” value is given as “D* (D* = 76-100% activation)”.

With `COc1ccnc(Nc2nc(-c3nccn3C)nn3cc(-c4ccn(C(C)C)n4)c(C)c23)n1` [Compound 53, 6-(1-Isopropyl-1H-pyrazol-3-yl)-N-(4-methoxypyrimidin-2-yl)-5-methyl-2-(1-methyl-1H-imidazol-2-yl)pyrrolo[2,1-f][1,2,4]triazin-4-amine], the inhibition in the assay with IL6 fell in the range of 50 to 74%. Also, the inhibition at 10 µM in the assay with TNF-alpha was 1 to 24%. The IC50 in assay [1] was below 150 nM. The “% inh” value in assay [2] is listed as “B (B = 26-45% inhibition)”.

For `Cc1c(-c2ccn(C)n2)cn2nc(-c3nccn3C)nc(Nc3cc(-c4ccncc4)[nH]n3)c12` [Compound 266, 5-Methyl-2-(1-methyl-1H-imidazol-2-yl)-6-(1-methyl-1H-pyrazol-3-yl)-N-(5-(pyridin-4-yl)-1H-pyrazol-3-yl)pyrrolo[2,1-f][1,2,4]triazin-4-amine], the inhibition in the assay with IL6 is 25 to 49%. Also, in the assay on TNF-alpha, the inhibition at 10 µM turned out to be 0%. Further, the IC50 in assay [1] is below 150 nM. Besides, the “% inh” value in assay [2] was “D* (D* = 76-100% activation)”.

On to `Cc1c(-c2ccn(C(C)C)n2)cn2nc(-c3nccn3C)nc(Nc3nnco3)c12` [Compound 59, N-(6-(1-Isopropyl-1H-pyrazol-3-yl)-5-methyl-2-(1-methyl-1H-imidazol-2-yl)pyrrolo[2,1-f][1,2,4]triazin-4-yl)-1,3,4-oxadiazol-2-amine], for which the inhibition with IL6 is 25 to 49%. Besides, the inhibition at 10 µM in the assay on TNF-alpha is 1 to 24%. Besides, the IC50 in assay [1] lay within 150 to 500 nM. Further, the “% inh” value in assay [2] is recorded as “D (D = 76-100% inhibition)”.
